Results from PubChem BioAssay AID256 (DTP/NCI, 2004).
Toxic doses and inconclusive results are not listed.

Test system: CD2F1 mice, L1210 leukemia ip, survival T/C
Test: NCI In Vivo Anticancer Drug Screen. Data for tumor model L1210 Leukemia (intraperitoneal) in CD2F1 (CDF1) mice
Conditions: higher = longer survival
Method in brief: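 Tumor-bearing mice (transplanted tumor) were split into treated and vehicle control groups, and the measured endpoint of each treated group was divided by that of its vehicle controls.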

[1] = endpoint: mean survival time, dose: 100.0 mg/kg/injection, schedule: Q01DX009 (ip), vehicle: saline with Tween-80
[2] = endpoint: mean survival time, dose: 200.0 mg/kg/injection, schedule: Q01DX009 (ip), vehicle: saline with Tween-80
[3] = endpoint: mean survival time, dose: 400.0 mg/kg/injection, schedule: Q01DX009 (ip), vehicle: saline with Tween-80
[4] = endpoint: mean survival time, dose: 50.0 mg/kg/injection, schedule: Q04DX003 (ip), vehicle: saline
[5] = endpoint: mean survival time, dose: 100.0 mg/kg/injection, schedule: Q04DX003 (ip), vehicle: saline
[6] = endpoint: mean survival time, dose: 200.0 mg/kg/injection, schedule: Q04DX003 (ip), vehicle: saline
[7] = endpoint: mean survival time, dose: 50.0 mg/kg/injection, schedule: Q01DX009 (ip), vehicle: saline with Tween-80
[8] = endpoint: mean survival time, dose: 100.0 mg/kg/injection, schedule: Q01DX001 (ip), vehicle: saline with Tween-80
[9] = endpoint: mean survival time, dose: 200.0 mg/kg/injection, schedule: Q01DX001 (ip), vehicle: saline with Tween-80
[10] = endpoint: mean survival time, dose: 400.0 mg/kg/injection, schedule: Q01DX001 (ip), vehicle: saline with Tween-80

Question: COC(=O)/C=C/c1ccc(O)cc1 was tested. Which T/C (endpoint: mean survival time, dose: 100.0 mg/kg/injection, schedule: Q01DX001 (ip), vehicle: saline sonified) did it give?
Answer: 102 % of control

Question: What about the T/C (endpoint: mean survival time, dose: 100.0 mg/kg/injection, schedule: Q04DX002 (ip), vehicle: saline with Tween-80) of the same molecule?
Answer: 101 % of control

Question: What about the T/C (endpoint: mean survival time, dose: 200.0 mg/kg/injection, schedule: Q01DX001 (ip), vehicle: saline sonified) of the same molecule?
Answer: 102 % of control

Question: And the T/C (endpoint: mean survival time, dose: 200.0 mg/kg/injection, schedule: Q04DX002 (ip), vehicle: saline with Tween-80)?
Answer: 101 % of control

Question: And the T/C (endpoint: mean survival time, dose: 400.0 mg/kg/injection, schedule: Q01DX001 (ip), vehicle: saline sonified)?
Answer: 102 % of control

Question: And the T/C (endpoint: mean survival time, dose: 400.0 mg/kg/injection, schedule: Q04DX002 (ip), vehicle: saline with Tween-80)?
Answer: 96 % of control

Question: How did the T/C (endpoint: mean survival time, dose: 75.0 mg/kg/injection, schedule: Q01DX001 (ip), vehicle: saline) turn out when NC1=NC(=S)CS1 was run?
Answer: 95 % of control

Question: What about the T/C (endpoint: mean survival time, dose: 150.0 mg/kg/injection, schedule: Q01DX001 (ip), vehicle: saline) of the same molecule?
Answer: 95 % of control

Question: And the T/C (endpoint: mean survival time, dose: 300.0 mg/kg/injection, schedule: Q01DX001 (ip), vehicle: saline)?
Answer: 87 % of control

Question: With CC(CP(=O)(c1ccccc1)c1ccccc1)C(O)(C(=O)c1ccccc1)c1ccccc1 (centres undefined) as the molecule, how does the T/C [1] read?
Answer: 95 % of control

Question: And the T/C (endpoint: mean survival time, dose: 100.0 mg/kg/injection, schedule: Q04DX003 (ip), vehicle: saline with Tween-80)?
Answer: 97 % of control

Question: And the T/C [2]?
Answer: 97 % of control

Question: And the T/C (endpoint: mean survival time, dose: 200.0 mg/kg/injection, schedule: Q04DX003 (ip), vehicle: saline with Tween-80)?
Answer: 94 % of control

Question: And the T/C (endpoint: mean survival time, dose: 400.0 mg/kg/injection, schedule: Q04DX003 (ip), vehicle: saline with Tween-80)?
Answer: 102 % of control

Question: O=NN(CCCl)C(=O)Nc1cc2c3ccccc3ccc2c2ccccc12 was tested. Which T/C (endpoint: mean survival time, dose: 177.0 mg/kg/injection, schedule: Q01DX009 (ip), vehicle: saline with Tween-80) did it give?
Answer: 102 % of control

Question: And the T/C (endpoint: mean survival time, dose: 265.0 mg/kg/injection, schedule: Q01DX009 (ip), vehicle: saline with Tween-80)?
Answer: 98 % of control

Question: What about the T/C [3] of the same molecule?
Answer: 102 % of control

Question: And the T/C (endpoint: mean survival time, dose: 600.0 mg/kg/injection, schedule: Q01DX009 (ip), vehicle: saline with Tween-80)?
Answer: 89 % of control

Question: How did the T/C (endpoint: median survival time, dose: 12.0 mg/kg/injection, schedule: Q01DX009 (ip), vehicle: saline with Tween-80) turn out when CCN(CC)CCNc1ccc(C)c2sc3ccc(O)cc3c(=O)c12 was run?
Answer: 106 % of control

Question: And the T/C (endpoint: median survival time, dose: 12.5 mg/kg/injection, schedule: Q01DX009 (ip), vehicle: saline with Tween-80)?
Answer: 110 % of control

Question: And the T/C (endpoint: median survival time, dose: 25.0 mg/kg/injection, schedule: Q01DX009 (ip), vehicle: saline with Tween-80)?
Answer: 121 % of control

Question: And the T/C (endpoint: median survival time, dose: 50.0 mg/kg/injection, schedule: Q01DX009 (ip), vehicle: saline with Tween-80)?
Answer: 159 % of control

Question: And the T/C (endpoint: median survival time, dose: 200.0 mg/kg/injection, schedule: Q01DX009 (ip), vehicle: saline with Tween-80)?
Answer: 103 % of control

Question: How did the T/C (endpoint: mean survival time, dose: 15.63 mg/kg/injection, schedule: Q01DX001 (ip), vehicle: water) turn out when CN(C)P1(=O)NCC(C(C)(C)C)CO1 (centres undefined) was run?
Answer: 97 % of control

Question: And the T/C (endpoint: mean survival time, dose: 31.25 mg/kg/injection, schedule: Q01DX001 (ip), vehicle: water)?
Answer: 97 % of control

Question: And the T/C (endpoint: mean survival time, dose: 62.5 mg/kg/injection, schedule: Q01DX001 (ip), vehicle: water)?
Answer: 97 % of control

Question: And the T/C (endpoint: mean survival time, dose: 125.0 mg/kg/injection, schedule: Q01DX001 (ip), vehicle: water)?
Answer: 97 % of control

Question: What about the T/C (endpoint: mean survival time, dose: 250.0 mg/kg/injection, schedule: Q01DX001 (ip), vehicle: water) of the same molecule?
Answer: 101 % of control

Question: What does the source list for COc1cc2ccc(C=O)cc2cc1OC?
Answer: T/C (endpoint: mean survival time, dose: 12.5 mg/kg/injection, schedule: Q01DX009 (ip), vehicle: Klucel (hydroxypropylcellulose) (HPC)): 97 % of control; T/C (endpoint: mean survival time, dose: 25.0 mg/kg/injection, schedule: Q01DX009 (ip), vehicle: Klucel (hydroxypropylcellulose) (HPC)): 94 % of control; T/C (endpoint: mean survival time, dose: 50.0 mg/kg/injection, schedule: Q01DX009 (ip), vehicle: Klucel (hydroxypropylcellulose) (HPC)): 92 % of control; T/C (endpoint: mean survival time, dose: 100.0 mg/kg/injection, schedule: Q01DX009 (ip), vehicle: Klucel (hydroxypropylcellulose) (HPC)): 86 % of control; T/C (endpoint: mean survival time, dose: 200.0 mg/kg/injection, schedule: Q01DX009 (ip), vehicle: Klucel (hydroxypropylcellulose) (HPC)): 86 % of control; T/C (endpoint: mean survival time, dose: 400.0 mg/kg/injection, schedule: Q01DX009 (ip), vehicle: Klucel (hydroxypropylcellulose) (HPC)): 90 % of control

Question: With CC(C)(C(=O)O)C(=O)O as the molecule, how does the T/C [4] read?
Answer: 97 % of control

Question: And the T/C [5]?
Answer: 94 % of control

Question: What about the T/C [6] of the same molecule?
Answer: 100 % of control

Question: Which results are given for CC(C)(CCC(=O)O)c1ccc(O)cc1?
Answer: T/C [5]: 101 % of control; T/C [6]: 103 % of control; T/C (endpoint: mean survival time, dose: 400.0 mg/kg/injection, schedule: Q04DX003 (ip), vehicle: saline): 103 % of control

Question: How did the T/C (endpoint: mean survival time, dose: 100.0 mg/kg/injection, schedule: Q01DX001 (ip), vehicle: saline) turn out when O=[N+]([O-])c1ccccc1N/N=C/c1ccccc1 was run?
Answer: 100 % of control

Question: And the T/C (endpoint: mean survival time, dose: 200.0 mg/kg/injection, schedule: Q01DX001 (ip), vehicle: saline)?
Answer: 97 % of control

Question: What about the T/C (endpoint: mean survival time, dose: 400.0 mg/kg/injection, schedule: Q01DX001 (ip), vehicle: saline) of the same molecule?
Answer: 97 % of control

Question: Which results are given for CS(=O)(=O)OCCN(CCOS(C)(=O)=O)c1ccc(C=Nc2ccc(C(=O)O)c(O)c2)cc1?
Answer: T/C (endpoint: mean survival time, dose: 0.5 mg/kg/injection, schedule: Q01DX009 (ip), vehicle: saline): 104 % of control; T/C (endpoint: mean survival time, dose: 1.0 mg/kg/injection, schedule: Q01DX009 (ip), vehicle: saline): 101 % of control; T/C (endpoint: mean survival time, dose: 2.0 mg/kg/injection, schedule: Q01DX009 (ip), vehicle: saline): 107 % of control; T/C (endpoint: mean survival time, dose: 4.0 mg/kg/injection, schedule: Q01DX009 (ip), vehicle: saline): 104 % of control

Question: With CCCCC/C(C)=C(\C)c1cc(OC)cc(OC)c1 as the molecule, how does the T/C [1] read?
Answer: 103 % of control

Question: What about the T/C [2] of the same molecule?
Answer: 106 % of control

Question: What about the T/C [3] of the same molecule?
Answer: 91 % of control

Question: Which T/C [7] does the source give for CCCN(CCC)CCCC#N here?
Answer: 100 % of control

Question: What about the T/C [1] of the same molecule?
Answer: 101 % of control

Question: What does the source list for CCOC(=O)Nc1cc2ncc(C(=O)N(C)c3ccccc3)nc2c(N)n1?
Answer: T/C [8]: 98 % of control; T/C [9]: 88 % of control; T/C [10]: 98 % of control

Question: How did the T/C [7] turn out when CC(C)NC(=O)C1C=C2c3cccc4c3C(CN4)CC2N(C)C1 (centres undefined) was run?
Answer: 93 % of control

Question: And the T/C [4]?
Answer: 94 % of control

Question: And the T/C [1]?
Answer: 100 % of control

Question: What about the T/C [5] of the same molecule?
Answer: 88 % of control

Question: And the T/C [2]?
Answer: 97 % of control

Question: What about the T/C [6] of the same molecule?
Answer: 94 % of control

Question: What does the source list for O=C(O)c1ccc([N+](=O)[O-])nc1?
Answer: T/C [8]: 91 % of control; T/C [9]: 95 % of control; T/C [10]: 93 % of control
